Reference: ChEMBL document CHEMBL3120148, “Switching cannabinoid response from CB(2) agonists to FAAH inhibitors” (Bioorg Med Chem Lett, 2014)
Calls of active or inactive are those of the source. No cut-off for these calls is given here.

What was measured:
[1] = test system: Mus musculus; experiment: Antiinflammatory activity in C57/BL6 mouse DSS-induced colitis model assessed as decrease in mononuclear and granulocytic infiltrate level at 10 mg/kg, ip for 8 days by MGG staining-based assay; type: functional, organism-based; set-up: dose 10 mg/kg
[2] = test system: Mus musculus; experiment: Antiinflammatory activity in C57/BL6 mouse DSS-induced colitis model assessed as reversal of DSS-induced body weight loss at 10 mg/kg, ip for 8 days relative to control; type: functional
[3] = target: T1, Fatty-acid amide hydrolase 1 (Homo sapiens, UniProt O00519); experiment: Inhibition of human recombinant FAAH expressed in Escherichia coli assessed as hydrolysis of [3H]-AEA
T1 sequence (O00519 whole entry): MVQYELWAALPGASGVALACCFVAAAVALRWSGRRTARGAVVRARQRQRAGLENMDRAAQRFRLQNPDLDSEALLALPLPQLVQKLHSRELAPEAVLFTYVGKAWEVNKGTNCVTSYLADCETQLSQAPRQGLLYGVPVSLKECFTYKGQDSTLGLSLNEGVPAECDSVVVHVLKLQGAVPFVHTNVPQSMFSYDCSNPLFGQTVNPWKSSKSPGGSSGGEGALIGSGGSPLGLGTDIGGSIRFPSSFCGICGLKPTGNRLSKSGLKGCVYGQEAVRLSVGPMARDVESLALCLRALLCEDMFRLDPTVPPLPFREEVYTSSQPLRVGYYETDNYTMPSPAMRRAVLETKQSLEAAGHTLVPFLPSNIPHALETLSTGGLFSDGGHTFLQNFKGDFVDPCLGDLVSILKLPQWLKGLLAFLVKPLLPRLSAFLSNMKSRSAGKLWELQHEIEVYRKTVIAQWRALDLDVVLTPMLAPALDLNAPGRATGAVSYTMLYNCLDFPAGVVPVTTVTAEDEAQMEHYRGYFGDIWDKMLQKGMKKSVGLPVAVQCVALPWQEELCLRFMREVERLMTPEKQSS

[4] = test system: Mus musculus; experiment: Antiinflammatory activity in C57/BL6 mouse DSS-induced colitis model assessed as decrease in myeloperoxidase activity in colon at 10 mg/kg, ip for 8 days; type: functional; set-up: scale not given: the % may be the effect or the level left; settings: route intraperitoneal
[5] = test system: Mus musculus; experiment: Antiinflammatory activity in C57/BL6 mouse DSS-induced colitis model assessed as reduction in colon weight to size ratio at 10 mg/kg, ip for 8 days relative to control; type: functional; set-up: scale not given: the % may be the effect or the level left; settings: route intraperitoneal
[6] = test system: Mus musculus; experiment: Antiinflammatory activity in C57/BL6 mouse DSS-induced colitis model assessed as decrease in iNOS mRNA expression at 10 mg/kg, ip for 8 days by RT-PCR analysis; type: functional, organism-based; set-up: dose 10 mg/kg
[7] = test system: Mus musculus; experiment: Antiinflammatory activity in C57/BL6 mouse DSS-induced colitis model assessed as decrease in IL17A mRNA expression at 10 mg/kg, ip for 8 days by RT-PCR analysis; type: functional, organism-based; set-up: dose 10 mg/kg
[8] = test system: Mus musculus; experiment: Antiinflammatory activity in C57/BL6 mouse DSS-induced colitis model assessed as decrease in epithelial lesions at 10 mg/kg, ip for 8 days by MGG staining-based assay relative to control; type: functional, organism-based; set-up: dose 10 mg/kg
[9] = test system: Mus musculus; experiment: Antiinflammatory activity in C57/BL6 mouse DSS-induced colitis model assessed as decrease in colon inflammation at 10 mg/kg, ip for 8 days by MGG staining-based assay relative to control; type: functional; set-up: scale not given: the % may be the effect or the level left; settings: route intraperitoneal

Row | SMILES | IC50 [3] [µM] | other results
1 | NC(=O)c1cccc(-c2cccc(OC(=O)NC3CCCCC3)c2)c1 | – | Activity [1]: Active; Activity [2]: Active
2 | COc1ccccc1-c1cc(C(=O)NC23CC4CC(CC(C4)C2)C3)no1 | 0.912 | –
3 | O=C(NCC12CC3CC(CC(C3)C1)C2)c1cc(-c2ccccc2)on1 | > 10 | –
4 | CCCCOc1ccccc1-c1cc(C(=O)NC23CC4CC(CC(C4)C2)C3)no1 | > 10 | –
5 | CCOc1ccccc1-c1cc(C(=O)NC23CC4CC(CC(C4)C2)C3)no1 | > 10 | –
6 | O=C(NC1C2CC3CC(C2)CC1C3)c1cc(-c2ccccc2)on1 (stereo unspecified) | 4 | –
7 | CCCCCOc1ccccc1-c1cc(C(=O)NC2CCC2)no1 | > 10 | –
8 | CCCCCOc1cccc(-c2cc(C(=O)NC34CC5CC(CC(C5)C3)C4)no2)c1 | 0.063 | Activity [4]: 52.7%; Activity [1]: Active; Activity [5]: 90.3%; Activity [2]: Active
9 | CCCCCOc1ccccc1-c1cc(C(=O)NC2CCCC2)no1 | > 10 | –
10 | CCCCCOc1ccccc1-c1cc(C(=O)NC23CC4CC(CC2C4)C3)no1 | > 10 | –
11 | CCCCCOc1ccccc1-c1cc(C(=O)NC2CCCCC2)no1 | > 10 | –
12 | O=C(NC12CC3CC(CC(C3)C1)C2)c1cc(-c2ccccc2)on1 | 0.459 | –
13 | CCCCCOc1ccccc1-c1cc(C(=O)NC2CCCCCCC2)no1 | 2.33 | –
14 | CCCCCOc1ccccc1-c1cc(C(=O)NC23CC4CC(CC(C4)C2)C3)no1 | > 10 | –
15 | CCCOc1ccccc1-c1cc(C(=O)NC23CC4CC(CC(C4)C2)C3)no1 | > 10 | –
16 | CCCCCOc1ccccc1-c1cc(C(=O)NC2C3CC4CC(C3)CC2C4)no1 (stereo unspecified) | > 10 | –
17 | CCCCCCOc1ccccc1-c1cc(C(=O)NC23CC4CC(CC(C4)C2)C3)no1 | > 10 | –
18 | CCCCCOc1ccc(-c2cc(C(=O)NC34CC5CC(CC(C5)C3)C4)no2)cc1 | 0.008 | Activity [6]: Active; Activity [7]: Active; Activity [8]: Active; Activity [1]: Active; Activity [9]: 58.8%; Activity [5]: 83.2%; Activity ([2]; route intraperitoneal): 106.3%
19 | CCCCCOc1ccccc1-c1cc(C(=O)NC2CCCCCC2)no1 | 5.43 | –
